Values of other authors, collected in patent US6613762B2, “Gambogic acid, analogs and derivatives as activators of caspases and inducers of apoptosis” (Cytovia, Inc., priority 1999, dated 2003).

Tested on: HeLa cells
Conditions: reported by Asano et al., Phytochemistry 41:815-820 (1996); cited from earlier work

CC(C)=CCC[C@]1(C)C=Cc2c(O)c3c(c(CC=C(C)C)c2O1)O[C@]12C(=C[C@@H]4C[C@H]1C(C)(C)O[C@@]2(C/C=C(/C)C(=O)O)C4=O)C3=O [Example 1, Gambogic Acid]
Cytotoxicity to HeLa cells: cytotoxic
